Here are results for 4 compounds from patent US20120010072A1 (priority 2009, published 2012).

In one data set the test system is Septoria tritici. The note with it: 0.004 ppm; 405 nm, 7 days after inoculation, 18° C.
The test system of data set [1] is Sugar beet seeds (Beretta). Kind of data set: Safener effect of dimethomorph: germination of pelleted sugar beet seeds under cold stress. Type of data set: in vivo. Conditions: 30 g a.i./U seed pelleting; % of sown seeds; 6 days 13° C. then 5° C.; all seeds also treated with 6 g/U thiram and 14.7 g/U hymexazole. The procedure: Sugar beet seeds (Beretta) were pelleted either with pyraclostrobin alone or with pyraclostrobin in combination with dimethomorph. After sowing, the seeds (200 seeds per treatment, 4 repetitions) were grown for 6 days at 13° C. and then exposed to 5° C. for 7 days. Cultivation was then continued at 20° C. During the whole cultivation period the soil was kept at 20% humidity. 7 and 8 days after sowing (DAS) germination was assessed as % of the number of sown seeds.

The next data set concerns Phytophthora infestans. The data set is classed as cell-based. Conditions: 405 nm, 7 days after inoculation, 18° C.

Where two headings read alike, the source gives them in different places.

Compound `COC(=O)N(OC)c1ccccc1COc1ccn(-c2ccc(Cl)cc2)n1` [Pyraclostrobin] registered an Observed efficacy with Septoria tritici of 49%. Further, in data set [1], the “Germination 7 DAS” value stood at 16% and the “Germination 8 DAS” value is reported as 27%. As to `C/C(=N\C#N)N(C)Cc1ccc(Cl)nc1` [Acetamiprid], the Observed efficacy in the data set with Phytophthora infestans (0.25 ppm) is listed as 0%. As to `COc1ccc(C(=CC(=O)N2CCOCC2)c2ccc(Cl)cc2)cc1OC` [Dimethomorph], in the data set on Phytophthora infestans (0.25 ppm), the Observed efficacy is recorded as 51%. Take `CC(C)C1CCC(Cc2ccc(Cl)cc2)C1(O)Cn1cncn1` (stereo not drawn) [Ipconazol]: the Observed efficacy with Phytophthora infestans (0.063 ppm) came to 2%.
